Experiments:
Format in all cases: cell-based
[1] = target: T1, human β3 adrenergic receptor (Homo sapiens, UniProt P13945); assay: cAMP accumulation (SPA) in CHO cells transfected with human β3 adrenergic receptor; settings: for EC50: CHO cells expressing human β3-AR, cAMP, 30 min incubation, 10^−9 M to 10^−5 M, read-out: beta-3 EC50; for beta-3 (IA) maximal response relative to isoproterenol: IA = % activity compound / % activity isoproterenol at 10^−5 M, CHO human β3 cells
T1 construct: Full length β3 AR clones (402 amino acids) containing the last 6 amino acids of hβ3— AR are prepared; expressed in transfected cells; host or cells: CHO cells
Protocol: (§1) The ability of compounds of this invention to treat or inhibit disorders related to insulin resistance or hyperglycemia was established with representative compounds of this invention in the following standard pharmacological test procedures, which measured the binding selectivity to the β1, β2, and β3 adrenergic receptors. Binding to the receptors was measured in Chinese Hamster ovary (CHO) cells that were transfected with adrenergic receptors. The following briefly summarizes the procedures used and results obtained.
Cloning of Human β3-AR Genomic DNA: cDNA was constructed by ligating four polymerase chain reaction (PCR) products using the following primers: an ATG-Narl fragment, sense primer 5′-[…]3′ and anti-sense primer 5′[…]3′; a Narl-Accl fragment, 5′[…]3′ as sense and 5′[…]3′ as anti-sense primer; an Accli-Styl fragment, sense primer 5′[…]3′ and anti-sense primer 5′[…]3′ and a Styl-TAG fragment, with sense primer 5′[…]3′ and anti-sense primer 5′[…]3′. The corresponding primer sequences are described in Mantzoros, C. S., et.al., Diabetes 45: 909-914 (1996). The four fragments are ligated into a pUC 18 plasmid (Gibco-BRL) and sequenced. Full length β3 AR clones (402 amino acids) containing the last 6 amino acids of hβ3— AR are prepared with the β3-βARpcDNA3from ATTC.
(§2) Binding Procedure: Clones expressing receptor levels of 70 to 110 fmoles/mg protein were used in the test procedures. CHO cells were grown in 24-well tissue culture plates in Dulbecco's Modified Eagle Media with 10% fetal bovine serum, MEM non-essential amino acids, Penicillin-Streptompycin and Geneticin. On the day of test procedure, growth medium was replaced with preincubation media (Dulbecco's Modified Eagle Media and incubated for 30 minutes at 37° C. Preincubation medium was replaced with 0.2 ml treatment medium containing DMEM media containing 250 μM IBMX (isobutyl-1-methylxantine) plus 1 mM ascorbic acid with test compound dissolved in DMSO. Test compounds were tested over a concentration range of 10^−9 M to 10^−5 M for β3 cells and 10^−8 to 10^−4 M for β1 and β2 transfected cells. Isoproterenol (10^−5 M) was used as an internal standard for comparison of activity. Cells were incubated at 37° C. on a rocker for 30 min with the β3 cells and 15 min for β1 and β2 cells. Incubation was stopped with the addition of 0.2N HCl and neutralized with 2.5N NaOH. The plates, containing the cells and neutralized media, were stored at −20 degrees celsius until ready to test for cAMP using the SPA test kit (Amersham).
(§3) Data Analysis and Results: Data collected from the SPA test procedure were analyzed as per cent of the maximal isoproterenol response at 10^−5 M. Activity curves were plotted using the SAS statistical and graphics software. EC50 values were generated for each compound and the maximal response (IA) developed for each compound is compared to the maximal response of isoproternol at 10^−5 M from the following formula:
(§4) IA=% activity compound/% activity isoproterenol

[2] = target: T2, human β2-adrenergic receptor (Homo sapiens, UniProt P07550); assay: cAMP accumulation (SPA) in CHO cells transfected with human β2 adrenergic receptor; settings: for EC50: CHO cells transfected with human β2-AR, cAMP, 15 min incubation, 10^−8 to 10^−4 M, read-out: beta-2 EC50; for beta-2 (IA) maximal response relative to isoproterenol: IA = % activity compound / % activity isoproterenol at 10^−5 M, CHO human β2 cells
T2 construct: expressed in transfected cells; host or cells: CHO cells
Protocol: as §1
(§5) Transfection of CHO cells with β1 and β2 adrenergic receptors: CHO cells were transfected with human β1- or β2-adrenergic receptors as described in Tate, K. M., Eur. J. Biochem., 196:357-361 (1991).
as §2, §3, §4

[3] = target: T3, human β1-adrenergic receptor (Homo sapiens, UniProt P08588); assay: cAMP accumulation (SPA) in CHO cells transfected with human β1 adrenergic receptor; settings: for EC50: CHO cells transfected with human β1-AR, cAMP, 15 min incubation, 10^−8 to 10^−4 M, read-out: beta-1 EC50; for beta-1 (IA) maximal response relative to isoproterenol: IA = % activity compound / % activity isoproterenol at 10^−5 M, CHO human β1 cells
T3 construct: expressed in transfected cells; host or cells: CHO cells
Protocol: as §1, §5, §2, §3, §4

T1 sequence (P13945 whole entry): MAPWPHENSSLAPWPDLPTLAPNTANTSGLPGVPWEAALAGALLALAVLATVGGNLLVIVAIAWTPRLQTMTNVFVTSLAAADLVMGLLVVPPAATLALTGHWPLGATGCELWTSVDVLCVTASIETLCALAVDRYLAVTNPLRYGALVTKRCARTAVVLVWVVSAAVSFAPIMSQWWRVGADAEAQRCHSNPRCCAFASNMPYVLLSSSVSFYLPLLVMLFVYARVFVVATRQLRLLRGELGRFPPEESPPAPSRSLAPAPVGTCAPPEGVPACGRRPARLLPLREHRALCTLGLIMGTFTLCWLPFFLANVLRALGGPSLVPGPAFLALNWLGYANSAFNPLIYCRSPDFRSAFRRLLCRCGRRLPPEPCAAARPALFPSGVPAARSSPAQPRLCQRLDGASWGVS
T3 sequence (P08588 whole entry): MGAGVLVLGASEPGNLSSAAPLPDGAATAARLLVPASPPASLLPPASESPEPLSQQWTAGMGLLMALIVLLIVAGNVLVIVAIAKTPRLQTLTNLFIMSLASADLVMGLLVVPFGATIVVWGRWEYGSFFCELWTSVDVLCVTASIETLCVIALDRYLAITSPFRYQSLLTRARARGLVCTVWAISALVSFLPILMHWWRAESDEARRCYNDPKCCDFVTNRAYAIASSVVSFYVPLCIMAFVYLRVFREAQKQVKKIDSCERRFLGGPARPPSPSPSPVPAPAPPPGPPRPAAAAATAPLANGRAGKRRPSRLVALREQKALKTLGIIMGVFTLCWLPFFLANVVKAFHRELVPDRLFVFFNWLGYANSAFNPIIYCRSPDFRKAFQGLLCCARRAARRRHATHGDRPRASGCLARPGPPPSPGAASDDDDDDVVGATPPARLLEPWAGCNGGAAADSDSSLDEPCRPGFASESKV

Row | Compound | EC50 [1] | beta-3 (IA) maximal response relative to isoproterenol [1] | EC50 [2] | beta-2 (IA) maximal response relative to isoproterenol [2] | EC50 [3] | beta-1 (IA) maximal response relative to isoproterenol [3]
1 | CS(=O)(=O)Nc1cc([C@@H](O)CNC2CCN(c3ccc(S(=O)(=O)NCC4CC4)cc3)CC2)ccc1O [Example 26, N-Cyclopropylmethyl-4-{4-[(2R)-2-hydroxy-2-(4-hydroxy-3-methanesulfonylamino-phenyl)-ethylamino]-piperidin-1-yl}-benzenesulfonamide] | 23 nM | (0.98) | 270 nM | (0.29) | 240 nM | (0.41)
2 | CS(=O)(=O)Nc1cc([C@@H](O)CNC2CCN(c3ccc(S(=O)(=O)N(CC(=O)O)CC4CC4)cc3)CC2)ccc1O [Example 31, [Cyclopropylmethyl-(4-{4-[(2R)-2-hydroxy-2-(4-hydroxy-3-methanesulfonylamino-phenyl)-ethylamino]-piperidin-1-yl}-benzenesulfonyl)-amino]-acetic Acid] | 7 nM | (1.2) | 12000 nM | (0.33) | 20000 nM | (0.96)
3 | CCOC(=O)CN(C(C)C)S(=O)(=O)c1ccc(N2CCC(NC[C@H](O)c3ccc(O)c(NS(C)(=O)=O)c3)CC2)cc1 [Example 44] | 3 nM | (0.95) | 2000 nM | (0.43) | 12000 nM | (0.71)
4 | CC(C)(C)OC(=O)CN(Cc1cc(F)ccc1F)S(=O)(=O)c1ccc(N2CCC(NC[C@H](O)c3ccc(O)c(NS(C)(=O)=O)c3)CC2)cc1 [Example 67, tert-Butyl {(2,5-difuorobenzyl)[(4-{4-[((2R)-2-hydroxy-2-{4-hydroxy-3-[(methylsulfonyl)amino]phenyl}ethyl)amino]piperidin-1-yl}phenyl)sulfonyl]-amino}acetate] | 5 nM | (0.96) | – | (0.17) | 1000 nM | (0.48)
5 | CCOC(=O)[C@H]1CCCN1S(=O)(=O)c1ccc(N2CCC(NC[C@H](O)c3ccc(O)c(NS(C)(=O)=O)c3)CC2)cc1 [Example 30, 1-(4-{4-[(2R)-2-Hydroxy-2-(4-hydroxy-3-methanesulfonylamino-phenyl)-ethylamino]-piperidin-1-yl}-benzenesulfonyl)-pyrrolidine-(2R)-2-carboxylic Acid Ethyl Ester] | 4 nM | (1.2) | 3600 nM | (0.36) | 9800 nM | (1.1)
6 | 1-(4-{4-[2-Hydroxy-2-(4-hydroxy-3-methanesulfonylmethyl-phenyl)ethylamino]-piperidin-1-yl}-benzenesulfonylamino)cyclohexane Carboxylic Acid Ethyl Ester [Example 43] | 1 nM | (1) | 90 nM | (0.68) | 1280 nM | (0.58)

More lines, now with the values ahead:

Row | EC50 [1] | beta-3 (IA) maximal response relative to isoproterenol [1] | EC50 [2] | beta-2 (IA) maximal response relative to isoproterenol [2] | EC50 [3] | beta-1 (IA) maximal response relative to isoproterenol [3] | Compound
7 | 16 nM | (0.89) | 900 nM | (0.42) | 5600 nM | (0.43) | CCOC(=O)[C@H](CC(C)C)NS(=O)(=O)c1ccc(N2CCC(NC[C@H](O)c3ccc(O)c(NS(C)(=O)=O)c3)CC2)cc1 [Example 37, Ethyl (2S)-2-{[(4-{4-[((2R)-2-Hydroxy-2-{4-hydroxy-3-[(methylsulfonyl)amino]-phenyl}ethyl)amino]-1-piperidinyl}phenyl)sulfonyl]amino}-4-methylpentanoate]
8 | 5 nM | (0.91) | – | (0.15) | 10000 nM | (0.88) | CS(=O)(=O)Nc1cc([C@@H](O)CNC2CCN(c3ccc(S(=O)(=O)N(CC(=O)O)Cc4cc(F)ccc4F)cc3)CC2)ccc1O [Example 63, 2-{(2,5-Difluorobenzyl)[(4-{4-[((2R)-2-hydroxy-2-{4-hydroxy-3-[(methylsulfonyl)-amino]phenyl}ethyl)amino]-1-piperidinyl}phenyl)sulfonyl]amino}acetic acid]
9 | 1 nM | (1) | 370 nM | (0.35) | 1320 nM | (0.69) | CS(=O)(=O)Nc1cc([C@@H](O)CNC2CCN(c3ccc(S(=O)(=O)N4CCCCC4)cc3)CC2)ccc1O [Example 42, N-{2-Hydroxy-5-[(1R)-1-hydroxy-2-({1-[4-(1-piperidinylsulfonyl)phenyl]-piperidinyl}-4-amino)ethyl]phenyl}methanesulfonamide]
10 | 20 nM | (0.8) | – | (0.01) | 600 nM | (0.15) | COc1ccc(NS(=O)(=O)c2ccc(N3CCC(NC[C@H](O)COc4cccc5[nH]c(=O)[nH]c45)CC3)cc2)cc1OC [Example 7, N-(3,4-Dimethoxy-phenyl)-4-{4-[(2S)-2-hydroxy-3-(2-oxo-2,3-dihydro-1H-benzoimidazol-4-yloxy)-propylamino]-piperidin-1-yl}-benzenesulfonamide]
11 | 6 nM | (0.85) | – | (0.18) | – | (0.18) | COC(=O)CNS(=O)(=O)c1ccc(N2CCC(NC[C@H](O)c3ccc(O)c(NS(C)(=O)=O)c3)CC2)cc1 [Example 57, Methyl 2-{[(4-{4-[((2R)-2-Hydroxy-2-{4-hydroxy-3-[(methylsulfonyl)amino]-phenyl}ethyl)amino]-1-piperidinyl}phenyl)sulfonyl]amino}acetate]
12 | 52 nM | (1) | 1430 nM | (0.37) | 1000 nM | (0.63) | CCOC(=O)CN(C)S(=O)(=O)c1ccc(N2CCC(NC[C@H](O)c3ccc(O)c(NS(C)(=O)=O)c3)CC2)cc1 [Example 25, [(4-{4-[(2R)-2-Hydroxy-2-(4-hydroxy-3-methanesulfonylamino-phenyl)-ethylamino]-piperidin-1-yl}-benzenesulfonyl)-methyl-amino]-acetic Acid Ethyl Ester]
13 | 94 nM | (1.1) | – | (0.03) | – | (0.16) | CCCCN(Cc1ccccc1)S(=O)(=O)c1ccc(N2CCC(NC[C@H](O)COc3cccc4[nH]c(=O)[nH]c34)CC2)cc1 [Example 2, N-Benzyl-N-butyl-4-{4-[(2S)-2-hydroxy-3-(2-oxo-2,3-dihydro-1H-benzoimidazol-4-yloxy)-propylamino]-piperidin-1-yl}-benzenesulfonamide]

From patent US6444685B1, “N-(4-sulfonylaryl)Cyclylamine 2-hydroxyethylamines as beta-3 adrenergic receptor agonists” (Wyeth, priority 2000, dated 2002)
